The source of these data is US10239869B2, “Sulfonamide compounds as voltage-gated sodium channel modulators” (LUPIN LIMITED, priority 2015, dated 2019).

By IC50 is commonly meant the concentration needed to halve the response being measured.

One data set deals with Nav 1.7 (Homo sapiens (Human), UniProt Q15858). The experiment in a line: Inhibition of sodium channels, Red Membrane Potential Dye FLIPR assay, veratridine depolarization. It is filed as cell-based. Particulars: HEK-293 cells overexpressing the channel.
Nav 1.7, sequence (Q15858 whole entry): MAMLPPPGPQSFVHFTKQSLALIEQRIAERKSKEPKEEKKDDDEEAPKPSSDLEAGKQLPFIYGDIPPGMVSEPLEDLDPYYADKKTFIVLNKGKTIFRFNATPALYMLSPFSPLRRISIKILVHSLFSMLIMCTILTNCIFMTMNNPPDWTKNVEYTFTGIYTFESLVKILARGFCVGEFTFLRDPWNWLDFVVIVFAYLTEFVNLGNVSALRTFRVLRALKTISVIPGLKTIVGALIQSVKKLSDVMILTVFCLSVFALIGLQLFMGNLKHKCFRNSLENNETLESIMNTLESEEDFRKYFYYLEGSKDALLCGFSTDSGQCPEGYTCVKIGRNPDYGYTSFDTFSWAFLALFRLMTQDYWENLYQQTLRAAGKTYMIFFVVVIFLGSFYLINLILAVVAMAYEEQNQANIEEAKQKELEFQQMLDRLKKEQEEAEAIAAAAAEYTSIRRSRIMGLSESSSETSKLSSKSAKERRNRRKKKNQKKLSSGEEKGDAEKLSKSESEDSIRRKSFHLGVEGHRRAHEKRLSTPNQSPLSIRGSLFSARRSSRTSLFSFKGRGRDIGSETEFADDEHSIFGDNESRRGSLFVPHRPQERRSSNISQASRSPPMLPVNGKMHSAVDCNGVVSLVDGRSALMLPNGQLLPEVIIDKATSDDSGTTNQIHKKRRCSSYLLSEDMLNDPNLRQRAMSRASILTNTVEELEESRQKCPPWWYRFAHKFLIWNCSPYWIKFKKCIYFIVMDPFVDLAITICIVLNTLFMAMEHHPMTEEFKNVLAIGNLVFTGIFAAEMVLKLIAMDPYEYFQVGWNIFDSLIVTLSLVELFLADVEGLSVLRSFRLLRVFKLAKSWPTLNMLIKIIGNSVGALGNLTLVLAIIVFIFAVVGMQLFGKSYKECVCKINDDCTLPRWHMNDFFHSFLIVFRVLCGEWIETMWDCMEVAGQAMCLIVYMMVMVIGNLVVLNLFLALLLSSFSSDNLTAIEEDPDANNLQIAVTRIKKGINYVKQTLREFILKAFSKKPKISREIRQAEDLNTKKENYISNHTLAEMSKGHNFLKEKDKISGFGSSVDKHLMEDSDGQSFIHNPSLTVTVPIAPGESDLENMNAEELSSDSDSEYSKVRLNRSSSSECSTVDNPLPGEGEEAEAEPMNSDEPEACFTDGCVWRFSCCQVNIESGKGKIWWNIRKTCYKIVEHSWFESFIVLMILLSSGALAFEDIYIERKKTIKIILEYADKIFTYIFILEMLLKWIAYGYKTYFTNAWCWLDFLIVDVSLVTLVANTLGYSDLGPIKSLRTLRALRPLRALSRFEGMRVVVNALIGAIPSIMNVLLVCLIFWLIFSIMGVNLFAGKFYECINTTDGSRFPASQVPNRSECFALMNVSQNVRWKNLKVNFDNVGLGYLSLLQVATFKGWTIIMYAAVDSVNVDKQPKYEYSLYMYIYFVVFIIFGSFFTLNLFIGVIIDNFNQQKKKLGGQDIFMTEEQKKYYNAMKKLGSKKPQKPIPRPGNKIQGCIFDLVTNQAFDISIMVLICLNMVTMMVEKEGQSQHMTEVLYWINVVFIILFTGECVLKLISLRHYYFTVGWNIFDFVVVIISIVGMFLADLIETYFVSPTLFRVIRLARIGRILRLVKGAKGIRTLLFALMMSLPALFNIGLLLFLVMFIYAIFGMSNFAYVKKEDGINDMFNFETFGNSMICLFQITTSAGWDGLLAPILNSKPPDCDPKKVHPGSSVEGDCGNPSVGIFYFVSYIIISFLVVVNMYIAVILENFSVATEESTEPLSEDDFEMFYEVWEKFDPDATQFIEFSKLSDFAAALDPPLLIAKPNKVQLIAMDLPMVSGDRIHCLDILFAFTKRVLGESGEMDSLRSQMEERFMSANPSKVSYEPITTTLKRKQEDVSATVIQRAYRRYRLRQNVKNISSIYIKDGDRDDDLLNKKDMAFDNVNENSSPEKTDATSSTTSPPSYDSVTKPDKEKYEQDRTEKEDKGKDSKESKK
The target of the next data set is Nav 1.5 (Homo sapiens (Human), UniProt Q14524). The data set is described as above. It counts as cell-based. The settings on record: HEK-293 cells overexpressing the channel.
Nav 1.5, sequence (Q14524 whole entry): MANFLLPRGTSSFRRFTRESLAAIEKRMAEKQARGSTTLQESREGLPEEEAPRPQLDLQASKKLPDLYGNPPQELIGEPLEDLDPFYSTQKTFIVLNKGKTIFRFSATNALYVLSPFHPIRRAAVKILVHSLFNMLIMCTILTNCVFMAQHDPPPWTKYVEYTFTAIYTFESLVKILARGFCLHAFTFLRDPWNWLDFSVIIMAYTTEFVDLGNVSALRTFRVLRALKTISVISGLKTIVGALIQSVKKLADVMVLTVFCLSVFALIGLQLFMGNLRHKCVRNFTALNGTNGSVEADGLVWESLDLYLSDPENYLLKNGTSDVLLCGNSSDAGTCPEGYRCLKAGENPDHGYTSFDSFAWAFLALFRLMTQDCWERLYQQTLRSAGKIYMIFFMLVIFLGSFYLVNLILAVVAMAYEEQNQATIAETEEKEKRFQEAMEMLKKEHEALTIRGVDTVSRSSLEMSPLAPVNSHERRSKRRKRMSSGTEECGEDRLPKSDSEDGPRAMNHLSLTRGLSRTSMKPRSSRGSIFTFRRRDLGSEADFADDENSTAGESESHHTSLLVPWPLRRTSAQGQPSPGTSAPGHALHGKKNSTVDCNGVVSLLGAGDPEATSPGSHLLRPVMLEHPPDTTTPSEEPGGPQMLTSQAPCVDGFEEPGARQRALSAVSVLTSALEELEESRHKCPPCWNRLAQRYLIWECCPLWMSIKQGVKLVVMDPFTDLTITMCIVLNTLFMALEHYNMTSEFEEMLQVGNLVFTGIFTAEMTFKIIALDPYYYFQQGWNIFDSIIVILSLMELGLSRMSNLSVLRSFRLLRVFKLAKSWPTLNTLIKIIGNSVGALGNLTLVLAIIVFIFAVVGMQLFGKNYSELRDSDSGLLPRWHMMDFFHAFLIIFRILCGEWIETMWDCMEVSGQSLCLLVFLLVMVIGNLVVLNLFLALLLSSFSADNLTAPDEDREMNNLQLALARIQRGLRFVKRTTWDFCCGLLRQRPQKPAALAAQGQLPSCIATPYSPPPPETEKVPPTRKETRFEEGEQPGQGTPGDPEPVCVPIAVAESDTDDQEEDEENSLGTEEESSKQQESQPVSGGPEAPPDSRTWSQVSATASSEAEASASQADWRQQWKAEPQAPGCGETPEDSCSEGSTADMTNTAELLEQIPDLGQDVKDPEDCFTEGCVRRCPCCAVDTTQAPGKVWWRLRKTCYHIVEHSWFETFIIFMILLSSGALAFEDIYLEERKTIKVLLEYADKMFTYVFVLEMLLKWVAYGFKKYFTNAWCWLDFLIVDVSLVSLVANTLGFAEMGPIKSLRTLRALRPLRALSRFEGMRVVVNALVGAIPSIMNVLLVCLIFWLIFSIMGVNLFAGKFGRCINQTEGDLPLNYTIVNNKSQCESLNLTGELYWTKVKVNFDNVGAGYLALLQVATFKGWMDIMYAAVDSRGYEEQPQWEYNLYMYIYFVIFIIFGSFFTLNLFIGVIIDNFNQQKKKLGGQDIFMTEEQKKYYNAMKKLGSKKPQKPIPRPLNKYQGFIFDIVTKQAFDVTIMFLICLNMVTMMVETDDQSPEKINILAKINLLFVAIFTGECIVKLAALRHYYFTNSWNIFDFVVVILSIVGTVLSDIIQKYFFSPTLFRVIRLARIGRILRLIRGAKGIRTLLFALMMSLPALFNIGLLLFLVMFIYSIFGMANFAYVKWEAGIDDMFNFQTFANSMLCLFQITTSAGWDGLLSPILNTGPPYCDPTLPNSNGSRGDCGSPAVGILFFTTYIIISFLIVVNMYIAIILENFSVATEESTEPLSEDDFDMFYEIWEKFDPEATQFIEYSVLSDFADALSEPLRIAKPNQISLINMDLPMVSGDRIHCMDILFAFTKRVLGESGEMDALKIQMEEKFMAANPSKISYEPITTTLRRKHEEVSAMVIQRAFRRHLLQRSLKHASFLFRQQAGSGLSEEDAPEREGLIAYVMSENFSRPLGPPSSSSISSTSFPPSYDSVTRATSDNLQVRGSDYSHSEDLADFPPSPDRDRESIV
The mark [1] stands for this setting: read-out: Nav1.5 IC50 (bound given in μM).

Where two headings read alike, the source gives them in different places.

For the molecule `O=S(=O)(Nc1ccncn1)c1ccc2c(c1)OCC[C@H]2c1ccc(C(F)(F)F)cc1OC1CCOCC1` [Example-172, (R&S)—N-(pyrimidin-4-yl)-4-(2-((tetrahydro-2H-pyran-4-yl)oxy)-4-(trifluoromethyl)phenyl)chroman-7-sulfonamide], the figures for the IC50 on Nav 1.7 (read-out: Nav1.7 IC50) and on Nav 1.5 (setting [1]) were 2.74 µM and over 10 µM, respectively.
As to `O=S(=O)(Nc1ccncn1)c1ccc2c(c1)OCC[C@@H]2c1ccc(C(F)(F)F)cc1OC1CCOCC1` [Example-173, (R&S)—N-(pyrimidin-4-yl)-4-(2-((tetrahydro-2H-pyran-4-yl)oxy)-4-(trifluoromethyl)phenyl)chroman-7-sulfonamide], the IC50 on Nav 1.7 (read-out: Nav1.7 IC50) was determined as 0.012 µM. In addition, the “Nav1.5 % inhibition @ 10 μM” value at Nav 1.5 amounted to 63%.
For the molecule `O=S(=O)(Nc1cccnn1)c1ccc2c(c1)OCC[C@H]2c1ccc(C(F)(F)F)cc1OC1CCOCC1` [Example-174, (R&S)—N-(pyridazin-3-yl)-4-(2-((tetrahydro-2H-pyran-4-yl)oxy)-4-(trifluoromethyl)phenyl)chroman-7-sulfonamide], the concentration for half-maximal inhibition (IC50) at Nav 1.7 (read-out: Nav1.7 IC50) was 2.46 µM; on Nav 1.5 (setting [1]), over 10 µM.
Regarding `O=S(=O)(Nc1cccnn1)c1ccc2c(c1)OCC[C@@H]2c1ccc(C(F)(F)F)cc1OC1CCOCC1` [Example-175, (R&S)—N-(pyridazin-3-yl)-4-(2-((tetrahydro-2H-pyran-4-yl)oxy)-4-(trifluoromethyl)phenyl)chroman-7-sulfonamide], the IC50 worked out at 0.248 µM at Nav 1.7 (read-out: Nav1.7 IC50) and 1.69 µM at Nav 1.5 (read-out: Nav1.5 IC50).
Take `O=S(=O)(Nc1cccc(F)n1)c1ccc2c(c1)OCC[C@H]2c1ccc(C(F)(F)F)cc1OC1CCOCC1` [Example-176, (R&S)—N-(6-fluoropyridin-2-yl)-4-(2-((tetrahydro-2H-pyran-4-yl)oxy)-4-(trifluoromethyl)phenyl)chroman-7-sulfonamide]: at Nav 1.7 (read-out: Nav1.7 IC50), the IC50 stood at 1.31 µM. The “Nav1.5 % inhibition @ 10 μM” value at Nav 1.5 was 57%.
`O=S(=O)(Nc1cccc(F)n1)c1ccc2c(c1)OCC[C@@H]2c1ccc(C(F)(F)F)cc1OC1CCOCC1` [Example-177, (R&S)—N-(6-fluoropyridin-2-yl)-4-(2-((tetrahydro-2H-pyran-4-yl)oxy)-4-(trifluoromethyl)phenyl)chroman-7-sulfonamide]: the results for the IC50 at Nav 1.7 (read-out: Nav1.7 IC50) and on Nav 1.5 (read-out: Nav1.5 IC50) were 0.011 µM and 0.232 µM, respectively.
On to `O=S(=O)(Nc1ncccn1)c1ccc2c(c1)OCCC2c1ccc(C(F)(F)F)cc1O[C@H]1CCOC1` (stereo partly drawn) [Example-178, (R&S)—N-(pyrimidin-2-yl)-4-(2-(((S)-tetrahydrofuran-3-yl)oxy)-4-(trifluoromethyl)phenyl)chroman-7-sulfonamide], for which the IC50 on Nav 1.7 (read-out: Nav1.7 IC50) is 0.149 µM; at Nav 1.5 (setting [1]) it was over 10 µM.
With `O=S(=O)(Nc1ncccn1)c1ccc2c(c1)OCCC2c1ccc(C(F)(F)F)cc1O[C@H]1CCOC1` (stereo partly drawn) [Example-179, (R&S)—N-(pyrimidin-2-yl)-4-(2-(((S)-tetrahydrofuran-3-yl)oxy)-4-(trifluoromethyl)phenyl)chroman-7-sulfonamide], on Nav 1.7 (read-out: Nav1.7 IC50), the IC50 was found to be 0.038 µM. For the same molecule, the “Nav1.5 % inhibition @ 10 μM” value at Nav 1.5 turned out to be 64%.
On to `O=S(=O)(Nc1cccc(F)n1)c1ccc2c(c1)OCCC2c1ccc(C(F)(F)F)cc1O[C@H]1CCOC1` (stereo partly drawn) [Example-180, (R&S)—N-(6-fluoropyridin-2-yl)-4-(2-(((S)-tetrahydrofuran-3-yl)oxy)-4-(trifluoromethyl)phenyl)chroman-7-sulfonamide], for which the figures for the half-maximal inhibitory concentration (IC50) at Nav 1.7 (read-out: Nav1.7 IC50) and on Nav 1.5 (setting [1]) were 0.831 µM and over 10 µM, respectively.
For `O=S(=O)(Nc1cccc(F)n1)c1ccc2c(c1)OCCC2c1ccc(C(F)(F)F)cc1O[C@H]1CCOC1` (stereo partly drawn) [Example-181, (R&S)—N-(6-fluoropyridin-2-yl)-4-(2-(((S)-tetrahydrofuran-3-yl)oxy)-4-(trifluoromethyl)phenyl)chroman-7-sulfonamide], the IC50 at Nav 1.7 (read-out: Nav1.7 IC50) was determined as 0.0009 µM. Besides, the “Nav1.5 % inhibition @ 10 μM” value on Nav 1.5 is on record as 43%.
Turning to `O=S(=O)(Nc1ncccn1)c1ccc2c(c1)OCCC2c1ccc(C(F)(F)F)cc1O[C@@H]1CCOC1` (stereo partly drawn) [Example-185, (S&R)—N-(pyrimidin-2-yl)-4-(2-(((R)-tetrahydrofuran-3-yl)oxy)-4-(trifluoromethyl)phenyl)chroman-7-sulfonamide], the IC50 on Nav 1.7 (read-out: Nav1.7 IC50) was 1.02 µM; at Nav 1.5 (setting [1]), over 10 µM.
Consider `O=S(=O)(Nc1ncccn1)c1ccc2c(c1)OCCC2c1ccc(C(F)(F)F)cc1O[C@@H]1CCOC1` (stereo partly drawn) [Example-186, (S&R)—N-(pyrimidin-2-yl)-4-(2-(((R)-tetrahydrofuran-3-yl)oxy)-4-(trifluoromethyl)phenyl)chroman-7-sulfonamide], for which the IC50 at Nav 1.7 (read-out: Nav1.7 IC50) is 0.083 µM. In addition, the “Nav1.5 % inhibition @ 10 μM” value at Nav 1.5 came out at 46%.
On to `O=C(O)c1ccc(-c2cc(C(F)(F)F)ccc2[C@H]2CCOc3cc(S(=O)(=O)Nc4ncccn4)ccc32)cc1` [Example-188, (S&R)-2′-(7-(N-(pyrimidin-2-yl)sulfamoyl)chroman-4-yl)-5′-(trifluoromethyl)-[1,1′-biphenyl]-4-carboxylic acid], for which the IC50 is 0.067 µM on Nav 1.7 (read-out: Nav1.7 IC50) and over 10 µM at Nav 1.5 (setting [1]).
`O=C(O)c1ccc(-c2cc(C(F)(F)F)ccc2[C@@H]2CCOc3cc(S(=O)(=O)Nc4ncc(F)cn4)ccc32)cc1` [Example-189, (S&R)-2′-(7-(N-(5-fluoropyrimidin-2-yl)sulfamoyl)chroman-4-yl)-5′-(trifluoromethyl)-[1,1′-biphenyl]-4-carboxylic acid]: the IC50 at Nav 1.7 (read-out: Nav1.7 IC50) is 1.81 µM; at Nav 1.5 (setting [1]) it was over 10 µM.
On to `O=S(=O)(Nc1cccnn1)c1ccc2c(c1)OCC[C@H]2c1ccc(C(F)(F)F)cc1-c1ccc(F)cn1` [Example-199, (S&R)-4-(2-(5-fluoropyridin-2-yl)-4-(trifluoromethyl)phenyl)-N-(pyridazin-3-yl)chroman-7-sulfonamide], for which the results for the IC50 at Nav 1.7 (read-out: Nav1.7 IC50) and at Nav 1.5 (setting [1]) were 0.355 µM and over 10 µM, respectively.
As for `O=S(=O)(Nc1cccnn1)c1ccc2c(c1)OCC[C@@H]2c1ccc(C(F)(F)F)cc1-c1ccc(F)cn1` [Example-200, (S&R)-4-(2-(5-fluoropyridin-2-yl)-4-(trifluoromethyl)phenyl)-N-(pyridazin-3-yl)chroman-7-sulfonamide], the results for the IC50 on Nav 1.7 (read-out: Nav1.7 IC50) and on Nav 1.5 (setting [1]) were 0.0005 µM and over 10 µM, respectively.
Take `O=S(=O)(Nc1ncccn1)c1ccc2c(c1)OCC[C@H]2c1ccc(C(F)(F)F)cc1OC1COC1` [Example-216, (R&S)-4-(2-(oxetan-3-yloxy)-4-(trifluoromethyl)phenyl)-N-(pyrimidin-2-yl)chroman-7-sulfonamide]: the IC50 at Nav 1.7 (read-out: Nav1.7 IC50) was 2.73 µM; on Nav 1.5 (setting [1]), over 10 µM.
For `O=S(=O)(Nc1ncccn1)c1ccc2c(c1)OCC[C@@H]2c1ccc(C(F)(F)F)cc1OC1COC1` [Example-217, (R&S)-4-(2-(oxetan-3-yloxy)-4-(trifluoromethyl)phenyl)-N-(pyrimidin-2-yl)chroman-7-sulfonamide], on Nav 1.7 (read-out: Nav1.7 IC50), the IC50 amounted to 0.152 µM. Further, the “Nav1.5 % inhibition @ 10 μM” value at Nav 1.5 is reported as 50%.
With `O=S(=O)(Nc1ncccn1)c1ccc2c(c1)OCC[C@H]2c1ccc(C(F)(F)F)cc1OCCCF` [Example-220, (S&R)-4-(2-(3-fluoropropoxy)-4-(trifluoromethyl)phenyl)-N-(pyrimidin-2-yl)chroman-7-sulfonamide], the IC50 at Nav 1.7 (read-out: Nav1.7 IC50 (bound given in μM)) and on Nav 1.5 (setting [1]) was over 10 µM in each case.
In the case of `O=S(=O)(Nc1ncccn1)c1ccc2c(c1)OCC[C@@H]2c1ccc(C(F)(F)F)cc1OCCCF` [Example-221, (S&R)-4-(2-(3-fluoropropoxy)-4-(trifluoromethyl)phenyl)-N-(pyrimidin-2-yl)chroman-7-sulfonamide], the IC50 was 0.042 µM at Nav 1.7 (read-out: Nav1.7 IC50) and 1.47 µM at Nav 1.5 (read-out: Nav1.5 IC50).
For the molecule `COc1cc(C(F)(F)F)ccc1[C@@H]1CCOc2cc(S(=O)(=O)Nc3ncccn3)ccc21` [Example-226, (S&R)-4-(2-methoxy-4-(trifluoromethyl)phenyl)-N-(pyrimidin-2-yl)chroman-7-sulfonamide], the IC50 on Nav 1.7 (read-out: Nav1.7 IC50) was 2.35 µM. Further, at Nav 1.5, the “Nav1.5 % inhibition @ 10 μM” value amounted to 86%.
Consider `COc1cc(C(F)(F)F)ccc1[C@H]1CCOc2cc(S(=O)(=O)Nc3ncccn3)ccc21` [Example-227, (S&R)-4-(2-methoxy-4-(trifluoromethyl)phenyl)-N-(pyrimidin-2-yl)chroman-7-sulfonamide], for which the results for the IC50 at Nav 1.7 (read-out: Nav1.7 IC50) and on Nav 1.5 (setting [1]) were 0.177 µM and over 10 µM, respectively.
As to `COc1cc(C(F)(F)F)ccc1[C@@H]1CCOc2cc(S(=O)(=O)Nc3cccc(F)n3)ccc21` [Example-228, (S&R)—N-(6-fluoropyridin-2-yl)-4-(2-methoxy-4-(trifluoromethyl)phenyl)chroman-7-sulfonamide], the “Nav1.7 inhibition @ 10 μM” value on Nav 1.7 turned out to be 55%. Besides, on Nav 1.5 (setting [1]), the IC50 is over 10 µM.
As for `COc1cc(C(F)(F)F)ccc1[C@H]1CCOc2cc(S(=O)(=O)Nc3cccc(F)n3)ccc21` [Example-229, (S&R)—N-(6-fluoropyridin-2-yl)-4-(2-methoxy-4-(trifluoromethyl)phenyl)chroman-7-sulfonamide], the IC50 at Nav 1.7 (read-out: Nav1.7 IC50) was found to be 0.156 µM. For the same molecule, the “Nav1.5 % inhibition @ 10 μM” value at Nav 1.5 worked out at 42%.
With `O=C1COCCN1c1cc(C(F)(F)F)ccc1[C@@H]1CCOc2cc(S(=O)(=O)Nc3ncccn3)ccc21` [Example-230, (S&R)-4-(2-(3-oxomorpholino)-4-(trifluoromethyl)phenyl)-N-(pyrimidin-2-yl)chroman-7-sulfonamide], the IC50 was 4.42 µM on Nav 1.7 (read-out: Nav1.7 IC50) and over 10 µM on Nav 1.5 (setting [1]).
On the same counts, the results for `O=C1COCCN1c1cc(C(F)(F)F)ccc1[C@H]1CCOc2cc(S(=O)(=O)Nc3ncccn3)ccc21` [Example-231, (S&R)-4-(2-(3-oxomorpholino)-4-(trifluoromethyl)phenyl)-N-(pyrimidin-2-yl)chroman-7-sulfonamide] are 0.559 µM and over 10 µM.
As for `O=S1(=O)CCN(c2cc(C(F)(F)F)ccc2[C@@H]2CCOc3cc(S(=O)(=O)Nc4ncccn4)ccc32)CC1` [Example-232, (S&R)-4-(2-(1,1-dioxidothiomorpholino)-4-(trifluoromethyl)phenyl)-N-(pyrimidin-2-yl)chroman-7-sulfonamide], the “Nav1.7 inhibition @ 10 μM” value on Nav 1.7 worked out at 36%. In addition, the IC50 at Nav 1.5 (setting [1]) is over 10 µM.
